Values of other authors, collected in patent US12011508B2, “Methods and devices for reducing vascular smooth muscle cell proliferation” (Board of Supervisors of Louisiana State University and …, priority 2018, dated 2024).

Q: For O=c1c(O)c(-c2ccc(O)c(O)c2)oc2cc(O)cc(O)c12 [QUER, 2-(3,4-dihydroxyphenyl)-3,5,7-trihydroxy-4H-1-benzopyran-4-one], which water solubility is on record?
A: practically insoluble in water
